Experimental findings from US12643887B2, “Heterocyclic derivatives with cardiomyocyte proliferation activity for treatment of heart diseases” (Tongji University, priority 2019, dated 2026) are described below.

A value given as a limit tells only on which side of the number the result lay.

Holding throughout (assay type): biochemical
One assay addresses T1, human DYRK1A (Homo sapiens, UniProt Q13627).
T1 construct: Recombinant full-length DYRK1A (expressed in E. Coli cells with an N-terminal GST tag); GST (N); purchased SignalChem D09-10G; host or cells: E. coli
Put plainly: DYRK1A enzyme assay (ADP-Glo). Particulars: ADP-Glo, ATP 60 μM; read-out: DYRK1A IC50. As to the method: The ability of compounds to inhibit human DYRK1A kinase activities was determined using a commercially available ADP-Glo™ Kinase Assay kit (Promega, Cat #V9102) according to the manufacturer's protocol.
Recombinant full-length DYRK1A (expressed in E. Coli cells with an N-terminal GST tag) was purchased from SignalChem (Cat #D09-10G). The DYRK substrate peptide (DYRKtide, sequence: […]) was purchased from SignalChem (Cat #D96-58). This assay, run in a 384-well plate format, is a generic method for measuring kinase activities using an ADP-Glo Kinase Assay Kit. The basic assay procedure involves two steps: (1) Enzymatic step: inhibitors are incubated with the kinase and then ATP (included in the ADP-Glo Kinase Assay Kit) and the DYRKtide are added to start the enzymatic reaction; (2) Detection step: after the kinase reaction, first ADP-Glo™ Reagent is added to terminate the kinase reaction and deplete the remaining ATP. Second, the Kinase Detection Reagent is added to simultaneously convert ADP to ATP and allow the newly synthesized ATP to be measured using a luciferase/luciferin reaction. The light generated is measured using a luminometer.
Briefly, DYRK1A (3 nM) in the enzymatic buffer solutions (40 mM Tris, pH 7.5, 20 mM MgCl2, 0.1 mg/ml BSA, 50 μM DTT) were mixed with various concentrations of inhibitors (dissolved in 100% DMSO). These solutions were incubated for 30 minutes at 25° C., and subsequently a mixture of substrate peptide and ATP was added with the final peptide and ATP concentrations at 20 μM and 60 μM, respectively. The final reaction mixture of enzyme-substrate-ATP-compound was incubated for 60 minutes at 25° C.
Afterwards ADP-Glo™ Reagent was added and the mixture was incubated at 25° C. for 60 minutes. Then Kinase Detection Reagent was added and the final mixture was incubated at 25° C. for 60 minutes. The luminescence signal of the final solution was measured on an Envision instrument (PerkinElmer). The percent (%) inhibition at each concentration of a compound is calculated relative to the luminescence signal in the Max and Min control wells contained within each assay plate. […] The concentrations and percent inhibition values for a test compound are plotted and the concentration of the compound required to achieve 50% inhibition (IC50) is determined with a four-parameter logistic dose response equation.
(In general: In ADP-Glo the light output rises with the ADP produced.)

Another assay deals with T2, human HIPK1 (Homo sapiens, UniProt Q86Z02).
T2 construct: Recombinant human HIPK1 (156-555); GST (N); purchased SignalChem H03-11G; host or cells: Sf9 insect cells
T2 sequence (Q86Z02 156-555): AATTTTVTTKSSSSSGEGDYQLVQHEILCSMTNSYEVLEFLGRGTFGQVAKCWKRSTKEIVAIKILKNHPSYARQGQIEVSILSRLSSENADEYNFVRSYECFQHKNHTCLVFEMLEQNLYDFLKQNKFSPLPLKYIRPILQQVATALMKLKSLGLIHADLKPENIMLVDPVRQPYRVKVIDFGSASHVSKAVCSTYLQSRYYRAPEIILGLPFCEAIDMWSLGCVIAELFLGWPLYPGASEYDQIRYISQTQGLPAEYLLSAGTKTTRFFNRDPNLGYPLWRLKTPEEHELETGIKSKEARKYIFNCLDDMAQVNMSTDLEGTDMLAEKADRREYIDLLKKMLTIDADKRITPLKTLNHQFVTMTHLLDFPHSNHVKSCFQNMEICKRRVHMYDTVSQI
The assay can be described thus: HIPK1 enzyme assay (ADP-Glo). As to conditions: ADP-Glo, ATP 5 μM; read-out: HIPK1 IC50. As to the method: The ability of compounds to inhibit human HIPK1 kinase activities was determined using a commercially available ADP-Glo™ Kinase Assay kit (Promega, Cat #V9102) according to the manufacturer's protocol.
(§1) Recombinant human HIPK1 (156-555) (expressed in Sf9 insect cells with an N-terminal GST tag) was purchased from SignalChem (Cat #H03-11G). Recombinant full length human MBP (expressed in E. Coli cells with an N-terminal GST tag) was purchased from SignalChem (Cat #M42-54G). This assay, run in a 384-well plate format, is a generic method for measuring kinase activities using an ADP-Glo Kinase Assay Kit. The basic assay procedure involves two steps: (1) Enzymatic step: inhibitors are incubated with the kinase and then ATP (included in the ADP-Glo Kinase Assay Kit) and the MBP protein are added to start the enzymatic reaction; (2) Detection step: after the kinase reaction, first ADP-Glo™ Reagent is added to terminate the kinase reaction and deplete the remaining ATP. Second, the Kinase Detection Reagent is added to simultaneously convert ADP to ATP and allow the newly synthesized ATP to be measured using a luciferase/luciferin reaction. The light generated is measured using a luminometer.
Briefly, HIPK1 (4 nM) in the enzymatic buffer solutions (40 mM Tris, pH 7.5, 20 mM MgCl2, 0.1 mg/ml BSA, 50 μM DTT) were mixed with various concentrations of inhibitors (dissolved in 100% DMSO). These solutions were incubated for 30 minutes at 25° C., and subsequently a mixture of substrate peptide and ATP was added with the final peptide and ATP concentrations at 0.05 mg/ml and 5 μM, respectively. The final reaction mixture of enzyme-substrate-ATP-compound was incubated for 90 minutes at 25° C.
(§2) Afterwards ADP-Glo™ Reagent was added and the mixture was incubated at 25° C. for 60 minutes. Then Kinase Detection Reagent was added, and the final mixture was incubated at 25° C. for 60 minutes. The luminescence signal of the final solution was measured on an Envision instrument (PerkinElmer). The percent (%) inhibition at each concentration of a compound is calculated relative to the luminescence signal in the Max and Min control wells contained within each assay plate. […] The concentrations and percent inhibition values for a test compound are plotted and the concentration of the compound required to achieve 50% inhibition (IC50) is determined with a four-parameter logistic dose response equation.

A further assay concerns the target T3, human HIPK2 (Homo sapiens, UniProt Q9H2X6).
T3 construct: Recombinant human HIPK2 (1-640); GST (N); purchased SignalChem H04-11BG; host or cells: Sf9 insect cells
The assay can be described thus: HIPK2 enzyme assay (ADP-Glo). As to conditions: ADP-Glo, ATP 5 μM; read-out: HIPK2 IC50. As to the method:
The ability of compounds to inhibit human HIPK2 kinase activities was determined using a commercially available ADP-Glo™ Kinase Assay kit (Promega, Cat #V9102) according to the manufacturer's protocol.
as §1, with “HIPK2 (1-640)” for “HIPK1 (156-555)”, “#H04-11BG).” for “#H03-11G).”
Briefly, HIPK2 (1 nM) in the enzymatic buffer solutions (40 mM Tris, pH 7.5, 20 mM MgCl2, 0.1 mg/ml BSA, 50 μM DTT) were mixed with various concentrations of inhibitors (dissolved in 100% DMSO). These solutions were incubated for 30 minutes at 25° C., and subsequently a mixture of substrate peptide and ATP was added with the final peptide and ATP concentrations at 0.05 mg/ml and 5 μM, respectively. The final reaction mixture of enzyme-substrate-ATP-compound was incubated for 90 minutes at 25° C.
as §2

T3 sequence (Q9H2X6 1-640): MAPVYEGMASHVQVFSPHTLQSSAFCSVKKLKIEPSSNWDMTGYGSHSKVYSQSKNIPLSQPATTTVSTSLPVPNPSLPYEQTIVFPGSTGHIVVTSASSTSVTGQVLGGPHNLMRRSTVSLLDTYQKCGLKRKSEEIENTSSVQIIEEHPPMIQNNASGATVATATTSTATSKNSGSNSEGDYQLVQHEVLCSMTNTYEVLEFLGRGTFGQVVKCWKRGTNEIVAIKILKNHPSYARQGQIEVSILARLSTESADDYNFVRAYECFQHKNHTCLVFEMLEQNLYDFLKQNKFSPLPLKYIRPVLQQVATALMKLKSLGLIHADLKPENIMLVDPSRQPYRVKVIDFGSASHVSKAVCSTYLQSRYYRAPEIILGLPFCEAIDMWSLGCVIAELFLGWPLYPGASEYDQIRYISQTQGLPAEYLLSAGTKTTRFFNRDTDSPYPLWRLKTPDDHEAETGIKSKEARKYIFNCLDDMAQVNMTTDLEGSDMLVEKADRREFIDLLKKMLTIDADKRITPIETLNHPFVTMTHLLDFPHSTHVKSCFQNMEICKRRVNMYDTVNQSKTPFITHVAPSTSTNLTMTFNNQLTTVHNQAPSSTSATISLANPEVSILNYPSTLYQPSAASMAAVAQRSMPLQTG

As usually defined, the IC50 is the concentration at which inhibition is half-maximal. `O=C1NC(Nc2ccc3ncsc3c2)=N/C1=C\c1ccc2c(c1)OCO2` [Example 47, (Z)-5-(benzo[d][1,3]dioxol-5-ylmethylene)-2-(benzo[d]thiazol-6-ylamino)-3,5-dihydro-4H-imidazol-4-one]: the IC50 on human DYRK1A, on human HIPK1 and at human HIPK2 was greater than 10 µM in each case.
`CN(C1=N/C(=C\c2ccc3[nH]cnc3c2)C(=O)N1)c1ccccc1` [Example 30, (Z)-5-((1H-benzo[d]imidazol-5-yl)methylene)-2-(methyl(phenyl)amino)-3,5-dihydro-4H-imidazol-4-one]: the IC50 was 1 to 10 µM at human DYRK1A, greater than 10 µM on human HIPK1 and greater than 10 µM on human HIPK2.
Consider `O=C1NC(Nc2ccccc2)=N/C1=C\c1ccc2cc[nH]c2c1` [Example 73, (Z)-5-((1H-indol-6-yl)methylene)-2-(phenylamino)-3,5-dihydro-4H-imidazol-4-one], for which the half-inhibitory concentration (IC50) at human DYRK1A, at human HIPK1 and at human HIPK2 was greater than 10 µM each time.
Consider `O=C1NC(Nc2ccc3nc(Nc4ccccc4)sc3c2)=N/C1=C\c1ccc2ncsc2c1` [Example 104, (Z)-5-(benzo[d]thiazol-6-ylmethylene)-2-((2-(phenylamino)benzo[d]thiazol-6-yl)amino)-3,5-dihydro-4H-imidazol-4-one], for which the IC50 on human DYRK1A is 1 to 10 µM; on human HIPK1, greater than 10 µM; at human HIPK2, 1 to 10 µM.
As to `O=C1NC(Nc2ccc3ncsc3c2)=N/C1=C\c1ccc2nc[nH]c2c1` [Example 76, (Z)-5-((1H-benzo[d]imidazol-6-yl)methylene)-2-(benzo[d]thiazol-6-ylamino)-3,5-dihydro-4H-imidazol-4-one], the values for the IC50 on human DYRK1A, on human HIPK1 and at human HIPK2 were less than 0.1 µM, 0.1 to 1 µM and 0.1 to 1 µM, respectively.
For `O=C1NC(Nc2ccccc2)=N/C1=C\c1ccc2ncccc2c1` [Example 53, (Z)-2-(phenylamino)-5-(quinolin-6-ylmethylene)-3,5-dihydro-4H-imidazol-4-one], the IC50 on human DYRK1A was less than 0.1 µM; at human HIPK1 it was greater than 10 µM; on human HIPK2 it was 0.1 to 1 µM.
As to `NC1=N/C(=C\c2ccc3ncsc3c2)C(=O)N1` [Example 103, (Z)-2-amino-5-(benzo[d]thiazol-6-ylmethylene)-3,5-dihydro-4H-imidazol-4-one], the figures for the IC50 at human DYRK1A, on human HIPK1 and at human HIPK2 were less than 0.1 µM, 0.1 to 1 µM and 0.1 to 1 µM, respectively.
Regarding `CN(C1=N/C(=C\c2ccc3c(c2)OC(F)(F)O3)C(=O)N1)c1ccccc1` [Example 17, (Z)-5-((2,2-difluorobenzo[d][1,3]dioxol-5-yl)methylene)-2-(methyl(phenyl)amino)-3,5-dihydro-4H-imidazol-4-one], the IC50 on human DYRK1A, at human HIPK1 and on human HIPK2 was greater than 10 µM each time.
Turning to `O=C1NC(Nc2ccc3ncsc3c2)=N/C1=C\c1ccc2occc2c1` [Example 59, (Z)-2-(benzo[d]thiazol-6-ylamino)-5-(benzofuran-5-ylmethylene)-3,5-dihydro-4H-imidazol-4-one], the IC50 on human DYRK1A, on human HIPK1 and at human HIPK2 was greater than 10 µM in each case.
Take `CN(C1=N/C(=C\c2ccc3ncsc3c2)C(=O)N1)c1ccc(N)cc1` [Example 44, (Z)-2-((4-aminophenyl)(methyl)amino)-5-(benzo[d]thiazol-6-ylmethylene)-3,5-dihydro-4H-imidazol-4-one]: the results for the IC50 at human DYRK1A, at human HIPK1 and at human HIPK2 were 0.1 to 1 µM, 1 to 10 µM and 1 to 10 µM, respectively.
Regarding `O=C1NC(N(Cc2ccccc2)c2ccccc2)=N/C1=C\c1ccc2ncsc2c1` [Example 41, (Z)-5-(benzo[d]thiazol-6-ylmethylene)-2-(benzyl(phenyl)amino)-3,5-dihydro-4H-imidazol-4-one], the IC50 was 0.1 to 1 µM on human DYRK1A, greater than 10 µM at human HIPK1 and 1 to 10 µM at human HIPK2.
`CN(C1=N/C(=C\c2ccc3c(c2)OCO3)C(=O)N1)c1cccnc1` [Example 18, (Z)-5-(benzo[d][1,3]dioxol-5-ylmethylene)-2-(methyl(pyridin-3-yl)amino)-3,5-dihydro-4H-imidazol-4-one]: the IC50 was 0.1 to 1 µM on human DYRK1A, greater than 10 µM on human HIPK1 and greater than 10 µM at human HIPK2.
As for `O=C1NC(Nc2ccccc2)=N/C1=C\c1ccc2scnc2c1` [Example 14, (Z)-5-(benzo[d]thiazol-5-ylmethylene)-2-(phenylamino)-3,5-dihydro-4H-imidazol-4-one], the IC50 on human DYRK1A, on human HIPK1 and on human HIPK2 was greater than 10 µM each time.
Take `O=C1NC(N(CC2CC2)c2ccc3ncsc3c2)=N/C1=C\c1ccc2ncsc2c1` [Example 105, (Z)-2-(benzo[d]thiazol-6-yl(cyclopropylmethyl)amino)-5-(benzo[d]thiazol-6-ylmethylene)-3,5-dihydro-4H-imidazol-4-one]: the IC50 at human DYRK1A, at human HIPK1 and at human HIPK2 was greater than 10 µM in each case.
Take `Cn1cnc2cc(NC3=N/C(=C\c4ccc5ncsc5c4)C(=O)N3)ccc21` [Example 61, (Z)-5-(benzo[d]thiazol-6-ylmethylene)-2-((1-methyl-1H-benzo[d]imidazol-5-yl)amino)-3,5-dihydro-4H-imidazol-4-one]: the results for the IC50 at human DYRK1A, on human HIPK1 and on human HIPK2 were less than 0.1 µM, 0.1 to 1 µM and 0.1 to 1 µM, respectively.
